Experimental data from US8372889B2, “Methods for modulating metabolism” (Omega Biopharma (I.P.3) Limited, priority 2004, dated 2013).
Structures can show the parent of a compound that is named as a salt.

Experiments:
[1] = test system: Goto-Kakizaki Wistar rats (GK rats); test: Oral glucose tolerance test and starving plasma glucose in GK rats (Example 1); conditions: oral Metformin alone
Protocol: Nineteen male Goto-Kakizaki Wistar rats (GK rats) with weights of 300±20 g were kept in steel cages, 3-4 rats per cage. The cages were changed every two days. Indoor temperature and relative humidity was kept at 23±3° . and 65±1% respectively. Feed and drinking water was provided. GK rats were permitted a one-month period for adaptation.
One day prior to experimentation, at 17:00, all of the feed was removed from all groups, but not the drinking water. On the second day, at 09:30, starving plasma glucose was measured for all GK rats. At 10:00, glucose tolerance test (2 g/kg BW) was performed and the plasma glucose level was measured as well for all GK rats. […] On the ninth day, starving plasma glucose was measured and oral glucose tolerance test was performed again for all GK rats in all groups. […]
Six days following the change in regimen, starving plasma glucose was measured and glucose tolerance tests were performed, and blood and tissue samples were collected (liver, duodenum, pancreas gland, fat, and muscle) for all GK rats in all groups. […]
The glucose tolerance tests that were performed included the steps of starving the GK rats overnight. Next day at 09:30, starving plasma glucose was measured. […]

GK diabetic rats [2] = test: Plasma insulin and adiponectin in GK diabetic rats (Example 3); format: in vivo, rat
Protocol: (§1) Thirty-six Goto-Kakizaki Wistar (GK) rats (purchased from Shanghai Slaccas Laboratory Animal Center) aged about 13 weeks and weighting 321-323 g were acclimated to the animal facility for two weeks in individual cages. Food and water were provided ad libitum.
(§2) The 36 GK rats were divided into 4 groups based on body weight (BW) and plasma glucose level. Group 1 (control, n=10) was treated with saline by gavage (2 ml/rat); Group 2 (DC, n=6) was treated with cysteamine hydrochloride by gavage (22.5 mg/kg BW in 2 ml tap water); Group 3 (Metformin, Met, n=10) was treated with Metformin by gavage (34 mg/kg BW in 2 ml tap water); Group 4 (Met+DC, n=10) was treated with Metformin 34 mg/kg BW/day in 2 ml tap water for the first 10 days and then was treated with both cysteamine hydrochloride 22.5 mg/kg BW plus Metformin 34 mg/kg BW in 2 ml tap water for the second 10 days. All animals were treated at 10:00 for 20 days.
The four groups of animals were kept in the same room (temp 23±3° ., relative humidity 65±1%) in different cages with wire mesh bottoms to reduce coprophagia throughout the experiment. The rats were subjected to fasting overnight from 22:00 to 9:30 of the following day before being subjected to a glucose tolerance test. The rats were treated with glucose 2 g/kg BW in 2 ml tap water at 9:30 for the glucose tolerance test and the blood was collected from the tail vein at 0.5 hr, 1 hr, 2 hr, and 3 hr after glucose injection. Plasma glucose concentrations were determined by Glucotrendr2 equipment (Roche Diagnostics, Basel, Switzerland). Plasma insulin concentrations were determined by radioimmunoassay (Insulin RIA Kit, NO:0410, purchased from Shanghai Radioimmunoassay Research Institution).

diabetic patients = test: Open-label, randomized trial in diabetes type II patients (Example 4); conditions: for 24 h Microalbuminuria, Pre-treatment / FBS (fasting blood sugar), Pre-treatment / FCP (C peptide), Pre-treatment / FINS (fasting insulin), Pre-treatment / HOMA (Homeostasis Model Assessment), Pre-treatment / IGF, Pre-treatment / UA (blood uric acid), Pre-treatment: baseline before the trial treatment
Protocol: A small open-label, randomized trial was carried out at the national reference center for diabetes in China. Sixty patients of both sexes (ages ranged from 30 to 75 years old) diagnosed with diabetes type II were recruited. All subjects were informed and gave their consent to participate. Diabetes was diagnosed based on the WHO criteria set in 1999. […] Patients with the following conditions were excluded from the study: (1) dysfunction of heart, liver and/or kidney; (2) with acute diabetic complications and/or any acute cardiovascular complications or other chronic diseases in the past three months; and (3) pregnancy or nursing.
Patients were divided randomly into four groups of 15 patients each. A control group of subjects was not administered anti-diabetic drugs. The cysteamine alone (DC) group was treated with 540 mg/day of cysteamine hydrochloride. In the Metformin alone (Met) group, the dose of Metformin remained unchanged during the two months period. For the DC+Met group, patients remained on the same dose of Metformin they were originally administered, including an additional 100 mg/day of cysteamine hydrochloride. All patients were subjected to treatments for two months and samples were collected and measured at the beginning of, one month after, and two month after the trial for analysis. The results described herein are derived from the samples collected and measured at the beginning of the first month after the trial.

glut 4 = glut 4 expression in different tissues of GK diabetic rats (Example 3); format: in vivo, rat; conditions: liver, muscles, adipocytes
Protocol: Thirty-six Goto-Kakizaki Wistar (GK) rats (purchased from Shanghai Slaccas Laboratory Animal Center) aged about 13 weeks and weighting 321-323 g were acclimated to the animal facility for two weeks in individual cages. Food and water were provided ad libitum. The 36 GK rats were divided into 4 groups based on body weight (BW) and plasma glucose level. […] Group 2 (DC, n=6) was treated with cysteamine hydrochloride by gavage (22.5 mg/kg BW in 2 ml tap water); […] All animals were treated at 10:00 for 20 days.

normal Wistar rats = test: Fasting plasma glucose and insulin in normal Wistar rats (Example 2); format: in vivo, rat; conditions: for Fasting glucose / Fasting insulin: normal Wistar rats, Mean ± STD
Protocol: Thirty-two male Wistar rats (purchased from Shanghai Slaccas Laboratory Animal Center) aged about 13 weeks and weighting around 300 g were acclimated to the animal facility for two weeks in individual cages. Food and water were provided ad libitum. The Wistar rats were divided randomly into 4 groups and each group contained 8 rats. […] All animals were treated at 10:00 for 27 days. The four groups of animals were kept in the same room in different cages with wire mesh bottoms to reduce coprophagia throughout the experiment. […] Plasma glucose concentrations were determined by Glucotrendr2 equipment (Roche Diagnostics, Basel, Switzerland). Plasma insulin concentrations were determined by radioimmunoassay (Insulin RIA Kit, NO:0410, purchased from Shanghai Radioimmunoassay Research Institution). The abbreviation STD denotes the variability of the data about the mean or “standard deviation.” The abbreviation p denotes the level of significance of the results.

GK diabetic rats [3] = test: Glucose tolerance test in GK diabetic rats (Example 3); format: in vivo, rat
Protocol: as §1, §2
The four groups of animals were kept in the same room (temp 23±3° ., relative humidity 65±1%) in different cages with wire mesh bottoms to reduce coprophagia throughout the experiment. […] Plasma glucose concentrations were determined by Glucotrendr2 equipment (Roche Diagnostics, Basel, Switzerland). Plasma insulin concentrations were determined by radioimmunoassay (Insulin RIA Kit, NO:0410, purchased from Shanghai Radioimmunoassay Research Institution).

fat-feed rats = test: Lipids, free fatty acid and uric acid in fat-feed rats (Example 5); format: in vivo, rat; conditions: for CH / FFA / HDL / LDL / TG / UA: Mean + STD
[4] = DC15: 15 mg/kg BW by gavage for 27 days
[5] = DC22.5: 22.5 mg/kg BW by gavage for 27 days
[6] = DC30: 30 mg/kg BW by gavage for 27 days
[7] = normal, fasting Wistar rats, 15-30 mg/kg BW
[8] = doses of 11.25 mg/kg and 22.5 mg/kg

`CN(C)C(=N)N=C(N)N` [Metformin, reference compound] was tested, and the “duodenal plasma glucose levels and insulin resistance (in words)” value [1] was “to some extent, lowers”, the “insulin levels (in words)” value (GK diabetic rats [2]) was “decreased, but not statistically significant” and the “insulin-like growth factor 1 (IGF1) (in words)” value (diabetic patients) was “only a decrease”. For the same compound, the “24 h Microalbuminuria, Pre-treatment” value (diabetic patients) was 27.5 ± 23.69, the “FBS (fasting blood sugar), Pre-treatment” value (diabetic patients) was 8.92 ± 2.7 and the “FCP (C peptide), Pre-treatment” value (diabetic patients) was 579 ± 212. For the same compound, the “FINS (fasting insulin), Pre-treatment” value (diabetic patients) was 19.35 ± 10.2, the “HOMA (Homeostasis Model Assessment), Pre-treatment” value (diabetic patients) was 7.33 ± 3.3 and the “IGF, Pre-treatment” value (diabetic patients) was 52.81 ± 10.04. For the same compound, the “UA (blood uric acid), Pre-treatment” value (diabetic patients) was 320 ± 67 and the “expression of total glut4 (in words)” value (glut 4) was “increased, but not significantly”.
For `NCCS` [cysteamine hydrochloride], the Fasting glucose (normal Wistar rats; [4]) was 4.05 ± 0.23, the Fasting insulin (normal Wistar rats; [4]) was 48.82 ± 3.27 and the Fasting glucose (normal Wistar rats; [5]) was 3.94 ± 0.27. It also gave a Fasting insulin (normal Wistar rats; [5]) of 48.39 ± 2.38, a Fasting glucose (normal Wistar rats; [6]) of 3.95 ± 0.17 and a Fasting insulin (normal Wistar rats; [6]) of 51.32 ± 2.94. The “blood glucose levels (in words)” value (normal Wistar rats; [7]) was “dose-dependent effect on lowering”, the “blood insulin levels (in words)” value (normal Wistar rats; [7]) was “does not affect” and the “adiponectin (in words)” value (GK diabetic rats [2]) was “significantly increased”. The “insulin levels (in words)” value (GK diabetic rats [2]) was “did not affect”, the “Glucose tolerance test, plasma glucose, 2 hr” value (GK diabetic rats [3]; gavage DC 22.5 mg/kg BW, Metformin 34 mg/kg BW, 20 days, Met+DC: DC added for second 10 days, after glucose 2 g/kg BW, Mean ± STD) was 11.00 ± 0.8 mmol/L and the “glucose levels (in words)” value (GK diabetic rats [3]; glucose tolerance test, combination compared with Metformin alone, all time points except Fasting) was “did not affect”. The “C peptide (CP) (in words)” value (diabetic patients) was “decreases significantly”, the “HOMA (Homeostasis Model Assessment) (in words)” value (diabetic patients) was “decreases significantly” and the “blood uric acid (UA) levels (in words)” value (diabetic patients) was “decreases significantly”. The “fasting insulin (FINS) (in words)” value (diabetic patients) was “decreases significantly”, the “insulin-like growth factor 1 (IGF1) (in words)” value (diabetic patients) was “decreases significantly” and the “microalbuminuria (in words)” value (diabetic patients) was “obvious but not statistically significantly”. The “24 h Microalbuminuria, Pre-treatment” value (diabetic patients) was 42.73 ± 31.33, the “FBS (fasting blood sugar), Pre-treatment” value (diabetic patients) was 7.52 ± 1.57 and the “FCP (C peptide), Pre-treatment” value (diabetic patients) was 739 ± 183. The “FINS (fasting insulin), Pre-treatment” value (diabetic patients) was 35.39 ± 14.43, the “HOMA (Homeostasis Model Assessment), Pre-treatment” value (diabetic patients) was 11.94 ± 4.62 and the “IGF, Pre-treatment” value (diabetic patients) was 49.36 ± 5.75. For the same compound, the “UA (blood uric acid), Pre-treatment” value (diabetic patients) was 389 ± 50.98, the “LDL (in words)” value (fat-feed rats) was “decrease LDL but not significantly” and the CH (fat-feed rats; DC11.25: 11.25 mg/kg) was 1.6 ± 0.31 mmol/L. For the same compound, the FFA (fat-feed rats; DC11.25: 11.25 mg/kg) was 842 ± 256 µmol/L, the HDL (fat-feed rats; DC11.25: 11.25 mg/kg) was 1.11 ± 0.16 mmol/L and the LDL (fat-feed rats; DC11.25: 11.25 mg/kg) was 0.61 ± 0.18 mmol/L. The TG (fat-feed rats; DC11.25: 11.25 mg/kg) was 1.15 ± 0.12 mmol/L, the UA (fat-feed rats; DC11.25: 11.25 mg/kg) was 17.41 ± 1.99 mg/L and the CH (fat-feed rats; DC22.5: 22.5 mg/kg) was 1.55 ± 0.27 mmol/L. For the same compound, the FFA (fat-feed rats; DC22.5: 22.5 mg/kg) was 1087 ± 181 µmol/L, the HDL (fat-feed rats; DC22.5: 22.5 mg/kg) was 1.04 ± 0.09 mmol/L and the LDL (fat-feed rats; DC22.5: 22.5 mg/kg) was 0.63 ± 0.18 mmol/L. The TG (fat-feed rats; DC22.5: 22.5 mg/kg) was 1.1 ± 0.08 mmol/L, the UA (fat-feed rats; DC22.5: 22.5 mg/kg) was 16.12 ± 1.04 mg/L and the “free fatty acid (in words)” value (fat-feed rats; at doses indicated) was “significantly decrease”. The “uric acid (in words)” value (fat-feed rats; at doses indicated) was “significantly decrease”, the “cholesterol levels (in words)” value (fat-feed rats; [8]) was “can decrease” and the “triglyceride levels (in words)” value (fat-feed rats; [8]) was “can decrease”. The “HDL (in words)” value (fat-feed rats; not significantly) was “trend that cysteamine can increase HDL” and the “expression of total glut4 (in words)” value (glut 4) was “significantly increase”.
